Assay results published in patent US11524940B1, “Inhibitors of cysteine proteases and methods of use thereof” (priority 2020, dated 2022).

Experiments:
[1] = target: 229E Mpro (Human coronavirus 229E (HCoV-229E), UniProt P0C6X1); assay: 229E Mpro activity; format: biochemical; conditions: read-out: 229E Mpro EC50
Procedure: Compounds are assayed using standard methods to assess compound activity and IC50. […] The assay buffer contains 20 mM of Tris-HCl (pH 7.3), 100 mM of NaCl, 1 mM of EDTA, 5mM of TCEP and 0.1% BSA.

[2] = test system: Human Coronavirus (HCov) 229E; assay: HCoV 229E cytopathic effect (CPE) assay; format: cell-based; conditions: protection from virus-induced CPE, CellTiter Glo
Procedure: The antiviral activity of compounds is calculated based on the protection of the virus-induced CPE at each concentration normalized by the virus control.
Reagents and instruments used in this assay include luminescent cell viability assay kit CellTiter Glo (Promega) and Microplate Reader Synergy2 (BioTek).
Cytopathic effect (CPE) is measured by CellTiter Glo following the manufacturer's manual. The antiviral activity of compounds is calculated based on the protection of the virus-induced CPE at each concentration normalized by the virus control.

[3] = target: SARS-CoV2 Mpro (Severe acute respiratory syndrome coronavirus 2 (2019-nCoV) (SARS-CoV-2), UniProt P0DTD1); assay: COVID-19 (SARS-CoV2) Mpro enzymatic assay; format: biochemical; conditions: 25 nM Mpro, 25 μM substrate

Chain of 229E Mpro (P0C6X1 2966-3267 limits assumed): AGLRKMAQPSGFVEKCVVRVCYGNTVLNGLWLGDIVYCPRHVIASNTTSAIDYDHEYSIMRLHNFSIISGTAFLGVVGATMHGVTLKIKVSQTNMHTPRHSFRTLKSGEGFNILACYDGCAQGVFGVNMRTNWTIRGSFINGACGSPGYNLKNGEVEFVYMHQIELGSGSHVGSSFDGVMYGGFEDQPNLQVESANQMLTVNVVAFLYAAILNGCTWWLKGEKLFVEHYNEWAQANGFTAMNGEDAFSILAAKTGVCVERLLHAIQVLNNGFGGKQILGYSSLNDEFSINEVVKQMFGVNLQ

Question: `COc1cccc2[nH]c(C(=O)N[C@@H](CC(C)C)C(=O)NC(C#N)c3cccnc3)cc12` (mixture of isomers) [Compound 433, N-[(1S)-1-[[cyano(3-pyridyl)methyl]carbamoyl]-3-methyl-butyl]-4-methoxy-1H-indole-2-carboxamide] was tested. Which EC50 [1] did it give?
Answer: < 2000 nM

Question: And the EC50 ([2]; human coronavirus 229E)?
Answer: 2000 to 10000 nM

Question: With `COc1cccc2[nH]c(C(=O)N[C@@H](CC(C)C)C(=O)N[C@@H](CC3CCNC3=O)C(C#N)NCc3ccccc3)cc12` (single isomer, unassigned) [507 (Isomer 1.1)] as the molecule, how does the EC50 [1] read?
Answer: < 2000 nM

Question: And the EC50 ([2]; human coronavirus 229E)?
Answer: < 2000 nM

Question: What does the source list for `COc1cccc2[nH]c(C(=O)N[C@@H](CC(C)C)C(=O)N[C@@H](CC3CCNC3=O)C(C#N)NCc3ccccc3)cc12` (single isomer, unassigned) [507 (Isomer 1.2)]?
Answer: EC50 [1]: < 2000 nM; EC50 [2]: < 2000 nM

Question: What does the source list for `COc1cccc2[nH]c(C(=O)N[C@@H](CC(C)C)C(=O)N[C@@H](CC3CCNC3=O)C(C#N)NCc3ccccc3)cc12` (single isomer, unassigned) [507 (Isomer 2.2)]?
Answer: EC50 [1]: < 2000 nM; EC50 [2]: < 2000 nM

Question: Which IC50 [3] does the source give for `COc1cccc2[nH]c(C(=O)N3CC4(CC3C(=O)N[C@H](C#N)C[C@@H]3CCCNC3=O)CC(F)(F)C4)cc12` (single isomer, unassigned) [723 (Isomer 2)] here?
Answer: < 2000 nM

Question: And the EC50 [1]?
Answer: < 2000 nM

Question: And the EC50 ([2]; human coronavirus 229E)?
Answer: < 2000 nM

Question: With `N#C[C@H](C[C@@H]1CCCNC1=O)NC(=O)C1CC2(CCCCC2)CN1C(=O)c1cc2cccc(Cl)c2[nH]1` (single isomer, unassigned) [731 (Isomer 1)] as the molecule, how does the IC50 [3] read?
Answer: < 2000 nM

Question: What about the EC50 [1] of the same molecule?
Answer: < 2000 nM

Question: What about the EC50 ([2]; human coronavirus 229E) of the same molecule?
Answer: < 2000 nM

Question: How did the IC50 [3] turn out when `N#C[C@H](C[C@@H]1CCCNC1=O)NC(=O)C1CC2(CCCCC2)CN1C(=O)c1cc2ccc(Cl)cc2[nH]1` (single isomer, unassigned) [733 (Isomer 1)] was run?
Answer: < 2000 nM

Question: What about the EC50 [1] of the same molecule?
Answer: < 2000 nM

Question: And the EC50 ([2]; human coronavirus 229E)?
Answer: < 2000 nM

Question: What does the source list for `COc1cccc2[nH]c(C(=O)N[C@@H](CC(C)C)C(=O)N[C@H](C#N)C[C@@H]3CCNC3=O)cc12` [Compound 101, N-[(1S)-1-[[(1S)-1-cyano-2-[(3S)-2-oxopyrrolidin-3-yl]ethyl]carbamoyl]-3-methyl-butyl]-4-methoxy-1H-indole-2-carboxamide]?
Answer: EC50 [1]: < 2000 nM; EC50 ([2]; human coronavirus 229E): < 2000 nM

Question: For `COc1cccc2[nH]c(C(=O)N3C[C@H]4C([C@H]3C(=O)N[C@H](C#N)C[C@@H]3CCNC3=O)C4(C)C)cc12` (stereo partly drawn) [Compound 197, (2S,5S)-N-[(1S)-1-cyano-2-[(3S)-2-oxopyrrolidin-3-yl]ethyl]-3-(4-methoxy-1H-indole-2-carbonyl)-6,6-dimethyl-3-azabicyclo[3.1.0]hexane-2-carboxamide], which EC50 [1] is on record?
Answer: < 2000 nM

Question: What about the EC50 ([2]; human coronavirus 229E) of the same molecule?
Answer: < 2000 nM

Question: For `COc1cccc2[nH]c(C(=O)N[C@@H](CC(C)C)C(=O)N[C@@H](C[C@@H]3CCNC3=O)C(N)C#N)cc12` (stereo partly drawn) [Compound 344C, N-[(1S)-1-[[(1S)-2-amino-2-cyano-1-[[(3S)-2-oxopyrrolidin-3-yl]methyl]ethyl]carbamoyl]-3-methyl-butyl]-4-methoxy-1H-indole-2-carboxamide], which EC50 [1] is on record?
Answer: < 2000 nM

Question: What about the EC50 ([2]; human coronavirus 229E) of the same molecule?
Answer: < 2000 nM

Question: For `CCCOc1cccc2[nH]c(C(=O)N[C@@H](CC3CC3)C(=O)N[C@H](C#N)C[C@@H]3CCNC3=O)cc12` [Compound 379, N-[(1S)-2-[[(1S)-1-cyano-2-[(3S)-2-oxopyrrolidin-3-yl]ethyl]amino]-1-(cyclopropylmethyl)-2-oxo-ethyl]-4-propoxy-1H-indole-2-carboxamide], which EC50 [1] is on record?
Answer: < 2000 nM

Question: What about the EC50 ([2]; human coronavirus 229E) of the same molecule?
Answer: < 2000 nM

Question: Which EC50 [1] does the source give for `CC(C)C[C@H](NC(=O)c1cc2c(OC(F)F)cccc2[nH]1)C(=O)N[C@H](C#N)C[C@@H]1CCNC1=O` [Compound 509, N-[(1S)-1-[[(1S)-1-cyano-2-[(3S)-2-oxopyrrolidin-3-yl]ethyl]carbamoyl]-3-methyl-butyl]-4-(difluoromethoxy)-1H-indole-2-carboxamide] here?
Answer: < 2000 nM

Question: What about the EC50 ([2]; human coronavirus 229E) of the same molecule?
Answer: < 2000 nM

Question: `N#C[C@H](C[C@@H]1CCNC1=O)NC(=O)[C@H](CC1CC1)NC(=O)c1cc2cc(Cl)ccc2[nH]1` [Compound 519, 5-chloro-N-[(1S)-2-[[(1S)-1-cyano-2-[(3S)-2-oxopyrrolidin-3-yl]ethyl]amino]-1-(cyclopropylmethyl)-2-oxo-ethyl]-1H-indole-2-carboxamide] was tested. Which EC50 [1] did it give?
Answer: < 2000 nM

Question: What about the EC50 ([2]; human coronavirus 229E) of the same molecule?
Answer: < 2000 nM

Question: For `N#C[C@H](C[C@@H]1CCNC1=O)NC(=O)[C@H](CC1CC1)NC(=O)c1cc2cccc(Cl)c2[nH]1` [Compound 531, 7-chloro-N-[(1S)-2-[[(1S)-1-cyano-2-[(3S)-2-oxopyrrolidin-3-yl]ethyl]amino]-1-(cyclopropylmethyl)-2-oxo-ethyl]-1H-indole-2-carboxamide], which EC50 [1] is on record?
Answer: < 2000 nM

Question: And the EC50 ([2]; human coronavirus 229E)?
Answer: < 2000 nM

Question: Which EC50 [1] does the source give for `COc1cccc2[nH]c(C(=O)N[C@@H](CC3CCC3)C(=O)N[C@H](C#N)C[C@@H]3CCNC3=O)cc12` [Compound 577, N-[(1S)-2-[[(1S)-1-cyano-2-[(3S)-2-oxopyrrolidin-3-yl]ethyl]amino]-1-(cyclobutylmethyl)-2-oxo-ethyl]-4-methoxy-1H-indole-2-carboxamide] here?
Answer: < 2000 nM

Question: And the EC50 ([2]; human coronavirus 229E)?
Answer: < 2000 nM

Question: How did the EC50 [1] turn out when `COc1cccc2[nH]c(C(=O)N[C@@H](CC(C)(C)C)C(=O)N[C@H](C#N)C[C@@H]3CCCNC3=O)cc12` [Compound 643, N-[(1S)-1-[[(1S)-1-cyano-2-[(3S)-2-oxo-3-piperidyl]ethyl]carbamoyl]-3,3-dimethyl-butyl]-4-methoxy-1H-indole-2-carboxamide] was run?
Answer: < 2000 nM

Question: And the EC50 ([2]; human coronavirus 229E)?
Answer: < 2000 nM

Question: `COCCOCCOC(=O)N[C@@H](CC1CC1)C(=O)N[C@H](C#N)C[C@@H]1CCNC1=O` [Compound 671, 2-(2-methoxyethoxy)ethyl N-[(1S)-2-[[(1S)-1-cyano-2-[(3S)-2-oxopyrrolidin-3-yl]ethyl]amino]-1-(cyclopropylmethyl)-2-oxo-ethyl]carbamate] was tested. Which IC50 [3] did it give?
Answer: 2000 to 10000 nM

Question: What about the EC50 [1] of the same molecule?
Answer: 10000 to 30000 nM

Question: For `N#C[C@H](C[C@@H]1CCCNC1=O)NC(=O)[C@H](CC1CC1)NC(=O)c1ccn[nH]1` [Compound 872, N-((S)-1-(((S)-1-cyano-2-((S)-2-oxopiperidin-3-yl)ethyl)amino)-3-cyclopropyl-1-oxopropan-2-yl)-1H-pyrazole-5-carboxamide], which IC50 [3] is on record?
Answer: 2000 to 10000 nM

Question: What about the EC50 [1] of the same molecule?
Answer: 2000 to 10000 nM

Question: With `COC(=O)NS(=O)(=O)n1nccc1C(=O)N[C@@H](CC1CC1)C(=O)N[C@H](C#N)C[C@@H]1CCCNC1=O` [Compound 1258] as the molecule, how does the IC50 [3] read?
Answer: 2000 to 10000 nM

Question: And the EC50 [1]?
Answer: 2000 to 10000 nM

Question: What does the source list for “(S)-N-((S)-1-cyano-2-((S)-2-oxopyrrolidin-3-yl)ethyl)-1-(4-methoxy-1H-indole-2-carbonyl)-4,4-dimethylpyrrolidine-2- carboxamide [Compound 395]”?
Answer: IC50 [3]: 2000 to 10000 nM; EC50 [1]: 10000 to 30000 nM; EC50 [2]: 2000 to 10000 nM
